Entries after “also recorded” stand apart in the source; their conditions may differ.
Experiments:
lymphedema = conditions: cited from earlier work
CD4+ cells = experiment: CD4+ cell flow cytometry of lymph nodes and hind limb skin after PLND and adoptive transfer, with or without FTY720; type: in vivo, mouse; conditions: CD4KO mice, PLND, 24 hours after adoptive transfer of CD4+ cells
Description: Metzler et al., Int. Immunol. 20:633 (2008); Kharel et al., J. Biol. Chem. 280:36865 (2005). Control animals were treated with vehicle alone.
To induce lymphedema, we used a mouse tail model in which a 5 vmm portion of the mid-tail is excised and the deep lymphatic collecting vessels are ligated. Avraham et al., Am. J. Pathol. 177:3202 (2010); Clavin et al., Am. J. Physiol. Heart Circ. Physiol. 295:H2113 (2008); Rutkowski et al., Microvasc. Res. 72:161 (2006); Tabibiazar et al., PloS Med 3:e254 (2006). This model reliably results in sustained tail swelling, severe impairment in lymphatic function, and histopathologic features consistent with clinical lymphedema, lasting as long as 10 weeks after surgery. Avraham et al., Am. J. Pathol. 177:3202 (2010); Clavin et al., Am. J. Physiol. Heart Circ. Physiol. 295:H2113 (2008); Rutkowski et al., Microvasc. Res. 72:161 (2006); Tabibiazar et al., PloS Med 3:e254 (2006). […]
Culture expanded naïve CD4^+ cells (1×10^7) were suspended in 100 μL of sterile phosphate buffered saline (PBS) and adoptively transferred to CD4KO mice by weekly retro-orbital sinus injections beginning two weeks after surgery for 2 or 4 weeks (for PLND or lymphatic tail ablation, respectively), followed by sacrifice. […] Delivery of CD4^+ cells was confirmed using flow cytometry to quantify CD4^+ cells in single cell suspensions created from spleens and aortic lymph nodes. […]

[1] = tested on: lymphedema (mouse tail lymphatic ablation); experiment: Mouse tail skin/lymphatic ablation model of lymphedema, 6 weeks of treatment; type: in vivo; conditions: wild-type mice, 6 weeks after lymphatic ablation
From the text: To determine if FTY720 treatment can be useful for treating lymphedema, we next performed tail skin/lymphatic ablations on wild-type mice and treated experimental animals with FTY720 and control animals with vehicle only for 6 weeks.
To induce lymphedema, we used a mouse tail model in which a 5 vmm portion of the mid-tail is excised and the deep lymphatic collecting vessels are ligated. Avraham et al., Am. J. Pathol. 177:3202 (2010); Clavin et al., Am. J. Physiol. Heart Circ. Physiol. 295:H2113 (2008); Rutkowski et al., Microvasc. Res. 72:161 (2006); Tabibiazar et al., PloS Med 3:e254 (2006). This model reliably results in sustained tail swelling, severe impairment in lymphatic function, and histopathologic features consistent with clinical lymphedema, lasting as long as 10 weeks after surgery. Avraham et al., Am. J. Pathol. 177:3202 (2010); Clavin et al., Am. J. Physiol. Heart Circ. Physiol. 295:H2113 (2008); Rutkowski et al., Microvasc. Res. 72:161 (2006); Tabibiazar et al., PloS Med 3:e254 (2006). In other experiments, animals were randomized to either PLND or sham surgery. PLND was performed as previously reported, removing the nodes, surrounding fat pad, and afferent/efferent lymphatics. Control animals underwent sham popliteal surgeries where a skin incision was made in the area of the popliteal lymph node without nodal resection. Although sustained lymphedema is not observed here, it has previously been described as a means of analyzing regeneration of collateral lymphatics and collecting lymphatic pumping capacity. Proulx et al., Biomaterials 34:5128 (2013); Sharma et al., Am. J. Physiol. Heart and Circul. Physiol. 292:H3109 (2007).
In other experiments, WT mice underwent tail or popliteal lymphatic ablation surgeries and were subsequently randomized to treatment with FTY720 (Sigma Aldrich, St. Louis, Mo.), an […] modulator that blocks lymphocyte egress from lymph nodes. Metzler et al., Int. Immunol. 20:633 (2008); Kharel et al., J. Biol. Chem. 280:36865 (2005). Briefly, FTY720 was dissolved in water as per the manufacturer's recommendations, and supplied ad libitum starting the day of lymphatic ablation. Mice received an estimated 1.25 mg/kg/day for 2 or 6 weeks (for PLND or tail surgeries, respectively) until tissues were harvested. […]
Tail volumes were calculated weekly using the truncated cone formula. […]
Subcutaneous adipose tissue thickness measurements were analyzed by 2 blinded reviewers (n=5-6 animals/group) using standardized cross-sections by measuring from the width of tissues bounded by the reticular dermis to the deep fascia in 4 standardized regions per section. Capillary lymphatic vessel area was quantified as previously described using Panoramic viewer software (3DHistech, Budapest, Hungary) in four 40× high-power fields/animal per group. […]

[2] = FTY720 estimated 1.25 mg/kg/day in water, vs vehicle

Compound	clinical success in patients with lymphedema (lymphedema)	toxicity (lymphedema; patients with lymphedema)	CD4+ cells in the hind limb skin (CD4+ cells; vs vehicle treated PLND mice)	accumulation of CD4+ cells in the inguinal lymph node (CD4+ cells; vs vehicle, FTY720 in drinking water, estimated 1.25 mg/kg/day)	tail fibrosis (gross analysis) [1, 2]	tail swelling (gross analysis) [1, 2]	fibroadipose tissue deposition (thickness) ([1]; cross-sectional histology, vs vehicle control)	tail volumes (percentage change) ([1]; vs vehicle control)
O=c1ccc2ccccc2o1 [Coumarin]	modest success	significant toxicity including liver failure and death						
CCCCCCCCc1ccc(CCC(N)(CO)CO)cc1 [FTY720, 2-amino-2-[2-(4-octylphenyl)ethyl]propane-1,3-diol]			decreased the number of these cells in hind limb skin; also recorded: marked decrease	prevented release of CD4+ cells from the lymph node; also recorded: increased significantly	lack of swelling and fibrosis; also recorded: markedly decreased	lack of swelling; also recorded: markedly decreased	decreased fibroadipose tissue deposition; also recorded: significant decreases	lack of swelling; also recorded: significant decreases
